Consider one compound from patent publication EP0322643A1, “Medicines containing as a mixture interferon and 1-desoxy-piperidinoses, process for their manufacture and their use” (BAYER AG, priority 1987, dated 1989).

The test system of this assay is Visna-Virus. Briefly: Visna virus test: inhibition of virus-induced cytopathic effect in infected sheep fibroblast cell cultures. The format is cell-based. On the set-up: key to Antivirale Wirkung in der Zellkultur*: 3 = kompletter antiviraler Schutzeffekt; 100% Schutz der Zellen vor der Infektion; 2 = 50% Schutzeffekt der infizierten Zellkultur; 1- 10 - 20% Schutzeffekt der infizierten Zellkultur; 0 = komplette Zerstörung der infizierten Zellkultur. The settings on record: for Antivirale Wirkung in der Zellkultur*: compound alone, Schafszellen. The source says:
In Zellkulturen, die mit Visna-Virus infiziert sind, treten 5 bis 10 Tage nach der Infektion ausgeprägte virusinduzierte, zytopathische Effekte auf. Durch Behandlung der infizierten Zellkulturen mit den erfindungsgemäßen Kombinationen von Verbindungen der allgemeinen Formel (I) und Interferon konnte das Auftreten dieser zytopathischen Effekte verhindert werden.
Der Visna-Virus-Test wurde nach der Methode von 0. Narayan et al., Journal of Infectious Diseases 135, 5, 1977, 800 - 806 durchgeführt. Dazu wurden die erfindungsgemäßen Kombinationen von Verbindungen der allgemeinen Formel (I) und Interferon im Kulturmedium zu nicht zytotoxischen Konzentrationen verdünnt, und zwar in 96er Microtiterplatten. Anschließend wurden zu jeder Verdünnung der Wirkstoffe Schafsfibroblastenzellen (5 x 10⁴ Zellen pro Napf) in Kulturmedium zugeführt.
Jedes Näpfchen erhielt dann 50 µl einer Visna-Viruslösung mit einem Titer von ca. 2,5 x 10⁴ TCID₅₀ (TCID = tissue culture infectious dosis). Diese Virusdosis entspricht einer MOI (Multiplizität der Infektion) von ca. 0,05.
Unter diesen Infektionsbedingungen resultierte zwischen Tag 5 und Tag 10 in einer Infektionskontrolle ohne Substanz ein virusinduzierter, zytopathischer Effekt. Die infizierten und behandelten Zellen und die Kontrollzellen wurden 7 Tage bei 37°C, 5% CO₂ inkubiert.
Bei Auftreten des virusinduzierten zytopathogenen Effektes in der unbehandelten Viruskontrolle wurden die Kulturen mit Formalin fixiert und anschließend mit einer Giemsa-Lösung gefärbt. Die inhibitorische Konzentration (IC₅₀) wurde mikroskopisch als die Konzentration ermittelt, bei der der zytopathische Effekt um 50% gehemmt wurde, im Vergleich zur unbehandelten Viruskontrolle, die 100% Zellzerstörung aufwies.

As to `CC(C)c1ccc(NC(=O)CCN2C[C@@H](O)[C@@H](O)[C@H](O)[C@H]2CO)cc1` [3-(1,5-Didesoxy-1,5-imino-D-mannit-N-yl)-propionsäure-4-isopropyl-anilid], the “Reduktion der Konzentration der Einzelkomponenten um den Faktor” value (by combining both active substances, versus the single component alone) came out at 30. In addition, the “Antivirale Wirkung in der Zellkultur*” value was 2 (2 = 50% Schutzeffekt der infizierten Zellkultur) (Konzentration der Testsubstanz 0,03 mg/ml); 3 (3 = kompletter antiviraler Schutzeffekt; 100% Schutz der Zellen vor der Infektion) (Konzentration der Testsubstanz 0,5 mg/ml); 3 (3 = kompletter antiviraler Schutzeffekt; 100% Schutz der Zellen vor der Infektion) (Konzentration der Testsubstanz 0,06 mg/ml); 3 (3 = kompletter antiviraler Schutzeffekt; 100% Schutz der Zellen vor der Infektion) (Konzentration der Testsubstanz 0,25 mg/ml); 0 (Konzentration der Testsubstanz 0,001 mg/ml); 3 (3 = kompletter antiviraler Schutzeffekt; 100% Schutz der Zellen vor der Infektion) (Konzentration der Testsubstanz 1 mg/ml). The “Antivirale Wirkung in der Zellkultur*” value (Konzentration der Testsubstanz 0,003 mg/ml) is on record as 0, the “Antivirale Wirkung in der Zellkultur*” value (Konzentration der Testsubstanz 0,007 mg/ml) is on record as 0, the “Antivirale Wirkung in der Zellkultur*” value (Konzentration der Testsubstanz 0,015 mg/ml) is reported as 1 (1- 10 - 20% Schutzeffekt der infizierten Zellkultur) and the “Antivirale Wirkung in der Zellkultur*” value (Konzentration der Testsubstanz 0,125 mg/ml) is 3 (3 = kompletter antiviraler Schutzeffekt; 100% Schutz der Zellen vor der Infektion).
